Measurements as given in patent publication US20250154180A1, “CRK-LIKE (CRKL) ADAPTOR PROTEIN INHIBITORS AND METHODS OF MAKING AND USING THE SAME” (Rutgers, The State University of New Jersey, priority 2022, published 2025).

How the values were obtained:
Sk-Hep1 tumor = assay: HCC Sk-Hep1 xenograft model; assay type: in vivo, NSG mice
Excerpt: (§1) To further test whether the tumor growth inhibition effect of NC5 applied to other solid tumors, the HCC-Sk-Hep1cell line and PDAC-BXPC3 cell line xenograft models were used. Subcutaneous injection of 1.5×10^6 SK-Hep1 or BXPC3 cells in NSG mice, Six-ten days after tumor cell injection, the palpable tumor in NSG mice was confirmed.
To test the effects of the disclosed compounds on the xenograft mouse models, the HCC-Sk-Hep1 cell line xenograft model in NSG mice and 4T1-Luc orthotopic syngeneic breast tumor model in Balb/c mice was used. After confirming the palpable tumor in NSG or Balb/c mice. […] Compound III is referred to as “NC5-140-1” and Compound I is referred to as “NC5-140-2” in FIGS. 11A-11C.

[1] = tested on: pCrkL (T207) in Sk-Hep1 cells; assay: Flow cytometry of H2O2-induced pCrkL, Sk-Hep1; assay type: cell-based; details: 50 uM H2O2 1 hour, then 10 uM compound 24 hours
Description: In this example, Sk-Hep1 cells were pretreated with 50 uM H2O2 for 1 hour to induce activation of pCrkL and were then incubated with 10 uM NC5 or Compound III for 24 hours. pCrkL (T207) expression was determined by flow cytometry.

PBMCs = assay: MTT assay, PBMCs from healthy donors; assay type: cell-based, human
Description: Peripheral blood mononuclear cells (PBMCs, line with the symbol □) were used to determine the specificities of the cytotoxic effects of Pomiferin. The survival curve of PBMC-average is from four different healthy donors. […]
MTT assay—The MTT assay was used to detect cell proliferation. Briefly, cells were plated in a 96-well plate at a density of 50,000 cells/well in 200 μl of culture medium with candidate drugs to be tested (DMSO as a negative control). The treated cells were incubated for four hours a 37° C. with a 5% CO2 incubator to allow dark crystals to form at the bottom of the wells. […] After aspirating the culture medium from each well, 100 μl of crystal dissolving solution was added to each well and incubated for 10 minutes at RT. The signal was quantified by measuring the absorbance in each sample at 570 nm using a microplate reader.

BXPC3 tumor = assay: PDAC BXPC3 xenograft model; assay type: in vivo, NSG mice
Description: For HCC or PDAC xenograft models, NSG mice 8-week-old) were injected subcutaneously with 1×10^6 HepG2 or BXPC3 tumor cells mixed with Matrigel.
as §1

[2] = tested on: IL-2 production from human PBMCs; assay: IL-2 ELISA, PBMCs; assay type: cell-based
Description: IL-2 ELISA—IL-2 in vitro enzyme-linked immunosorbent assay (ELISA) was used to measure human IL-2 productions. This assay was conducted per the user manual from the kit. In brief, human PBMCs were cultured in R10 medium with 0.5 μg/ml PHA. Then, 100 μl of the standard and sample was added to each well and incubated at 4° C. overnight. A prepared biotin antibody (100 μl) was added to each well and incubated for 1 hour at room temperature. Then, 100 μl prepared streptavidin solution was added and incubated for 45 minutes at room temperature. TMB one-step substrate reagent (100 μl) was then added to each well and incubated for 30 minutes at room temperature. Stop solution (50 μl) was then added to each well, and the results were quantified at 450 nm by Infinite M1000 Pro Plate Reader (Tecan, Switzerland) immediately.
Previous studies have shown that phosphorylated CrkL inhibits immune cell functions. It was then evaluated whether a pCrkL inhibitor could restore immune cell functions. To test this, the production of IL-2 from human PBMCs treated with different concentrations of Pomiferin was quantitated. Phytohemagglutinin (PHA) was used to stimulate the secretion of IL-2 as a positive control group. […] Similar results were obtained from the third donor (FIG. 5B, lower panel).

[3] = tested on: CD147-CAR-NK killing in BXPC3 cells; assay: Cr51 release assay, CD147-CAR-NK killing of BXPC3; assay type: cell-based; details: 1 uM overnight
Description: In this example, activity of NC5 was evaluated for PBNK and CD147-CAR-NK killing in BXPC3 cells. PBNK or CD147-CAR-NK cells were incubated with 1 uM NC5 overnight, then cells were harvested for Cr51 release assay to check cell cytotoxicity. […] The star symbol indicates the significance of vehicle vs. NC5 of the indicated E:T ratios. *p<0.05, **p<0.01, n=3.

[4] = Mouse toxicity assays (serum ALT, AST, BUN, creatinine); assay type: in vivo, mice; details: mouse, in vivo
Description: Three mice were treated in each group. Blood samples were collected from every mouse in pre-treatment and post-treatment (20 days), and serum was obtained for alanine aminotransferase (ALT, SGPT, FIG. 12A), aspartate aminotransferase (AST, SGOT, FIG. 12B), blood urea nitrogen (BUN, FIG. 12C), and creatinine (FIG. 12D) tests to monitor liver and kidney toxicity. The normal Reference Ranges for ALT is 17-77 IU/L; AST is 54-298 IU/L; BUN is 18.5-33.3 mg/dL; Cr is 0-0.40 mg/dL.
Mouse toxicity assays—Blood was collected from the submandibular facial vein following IACUC guidelines (CMP, Houston Methodist Research Institute and Rutgers University) before and 20-day after the drug treatment. The Department of Veterinary Medicine & Surgery, MD Anderson Cancer Center, performed the clinical biochemistry and pharmacokinetics tests. Blood serum chemistry analysis included alanine transaminase (ALT), aspartate transaminase (AST), blood urea nitrogen (BUN), and creatinine level measurements.
Alanine aminotransferase (ALT, SGPT), aspartate aminotransferase (AST, SGOT), blood urea nitrogen (BUN), and creatinine levels were examined to determine liver and kidney toxicity of Pomiferin treatments in vivo. […] Nevertheless, these changes have no physiological significance because ALT, AST and BUN levels in all mice were within normal mouse reference ranges. […]

Q: Which tumor growth (Sk-Hep1 tumor; Pomiferin administered orally, two-group study) does the source give for `CC(C)=CCc1c2c(c3occ(-c4ccc(O)c(O)c4)c(=O)c3c1O)C=CC(C)(C)O2` [Pomiferin, 3′,4′,5-Trihydroxy-6″,6″-dimethyl-6-(3-methylbut-2-en-1-yl)-6″H-pyrano[2″,3″:7,8]isoflavone] here?
A: suppressed

Q: What about the tumor growth (Sk-Hep1 tumor; four-group study, 5.0 μg/g oral gavage) of the same compound?
A: inhibit tumor growth

Q: What about the median survival (Sk-Hep1 tumor; four-group study, 5.0 μg/g oral gavage, vehicle 26 days) of the same compound?
A: 34 days

Q: What about the “tumor sizes before day 25 of inoculation” value (Sk-Hep1 tumor; four-group study, administered orally) of the same compound?
A: no significant difference in tumor sizes

Q: What about the “median survival, fold longer than vehicle control” value (Sk-Hep1 tumor; two-group study) of the same compound?
A: 1.54 fold

Q: And the median survival (Sk-Hep1 tumor; two-group study, 5.0 μg/g oral, vehicle 24 days)?
A: 37 days

Q: What about the “H2O2 induced pCrkL protein levels” value [1] of the same compound?
A: inhibited H2O2 induced pCrkL protein levels

Q: What about the “cell proliferation (MTT)” value (PBMCs; 1 uM, 5 uM and 10 uM, 24 hours) of the same compound?
A: no statistical difference

Q: What about the IC50 (PBMCs; Homo sapiens, 72 h, MTT, three days, PBMC average of four healthy donors) of the same compound?
A: > 18 µM

Q: What about the “sensitivity to Pomiferin (survival percentage, MTT)” value (PBMCs; five M Pomiferin for three days, compared with MDA-MD-231-LUC) of the same compound?
A: more resistant to Pomiferin inhibition

Q: And the median survival (BXPC3 tumor; 5.0 μg/g oral, vehicle 37 days)?
A: 43.5 days

Q: What about the tumor growth (BXPC3 tumor; Pomiferin administered orally) of the same compound?
A: suppressed

Q: And the “median survival, fold longer than vehicle control” value (BXPC3 tumor; mouse, in vivo)?
A: 1.2 fold

Q: And the IL2 secretion ([2]; PBMCs from three healthy donors, treated overnight)?
A: did not inhibit IL2 secretion

Q: And the IL-2 production ([2]; first donor, compared to DMSO)?
A: decreased IL-2 production

Q: What about the “CD147-CAR-NK killing (Cr51 release)” value [3] of the same compound?
A: increased

Q: And the “damage to the liver and kidneys” value [4]?
A: little to no damage to the liver and kidneys
